Reference: patent US5756546A (priority 1994, dated 1998)
Structures can show the parent of a compound that is named as a salt.

Columns and labels:
[1] = known salts in solution; cited from earlier work
[2] = whether or not linked with L-arginine

SMILES	pH imposed in solution (in words) [1]	pH imposed in solution compared with the alkali metal salts (in words) [2]
CS(=O)(=O)Nc1ccc([N+](=O)[O-])cc1Oc1ccccc1 [sodium salt of nimesulide]	relatively alkaline pH	–
CS(=O)(=O)Nc1ccc([N+](=O)[O-])cc1Oc1ccccc1 [nimesulide-L-lysine salt]	–	markedly less alkaline pH
